Experimental findings from patent publication US8933235B2, “Pyridinedione carboxamide inhibitors of endothelial lipase” (Bristol-Myers Squibb Company, priority 2011, dated 2015) are described below.

The experiment has as its target T1, endothelial lipase (EL) (Homo sapiens, UniProt Q9Y5X9).
T1 construct: Conditioned media obtained from HT-1080 cells, which were transformed by RAGE technology (Athersys) to overexpress endogenous EL; endogenous in cells; conditioned medium used as the enzyme source
T1 sequence (Q9Y5X9 21-500): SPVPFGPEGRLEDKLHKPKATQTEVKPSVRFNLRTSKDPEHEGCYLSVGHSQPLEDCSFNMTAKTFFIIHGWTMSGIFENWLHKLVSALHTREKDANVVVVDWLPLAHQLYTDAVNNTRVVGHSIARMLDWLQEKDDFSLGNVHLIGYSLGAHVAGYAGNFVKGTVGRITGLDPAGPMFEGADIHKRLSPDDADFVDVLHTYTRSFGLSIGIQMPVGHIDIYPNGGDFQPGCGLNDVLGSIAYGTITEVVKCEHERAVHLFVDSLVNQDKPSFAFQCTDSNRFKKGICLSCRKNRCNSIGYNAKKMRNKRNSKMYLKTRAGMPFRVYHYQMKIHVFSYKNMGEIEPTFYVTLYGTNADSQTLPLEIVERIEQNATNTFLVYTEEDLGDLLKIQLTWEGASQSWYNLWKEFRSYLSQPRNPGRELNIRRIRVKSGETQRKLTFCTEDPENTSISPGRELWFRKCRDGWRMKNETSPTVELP
In words: Endothelial lipase (EL) enzymatic assay with fluorescent substrate A10070 in DMPG vesicles. Type of experiment: biochemical. As to conditions: conditioned media from HT-1080 cells overexpressing endogenous EL; 20 min preincubation at 37° C.; read-out: HLE_EL_CRC IC50. As for the experimental part:
Endothelial lipase activity was measured using a fluorescent substrate, A10070, (Invitrogen, CA) doped into an artificial vesicle containing DMPG (Avanti Polar Lipids) as the excipient. Vesicles were prepared by combining 285 uL of 1 mM DMPG in a 1:1 mixture of MeOH and CHCl3 with 15 uL of 1 mM A10070 in a 1:1 mixture of MeOH and CHCl3. The mixture was dried under nitrogen and resuspended in 150 uL of 50 mM HEPES pH 8.0 buffer containing 100 mM NaCl and 0.2 mM EDTA. The sample was allowed to sit at rt for 15 min and then was sonicated 3×4 mins on ice with a Branson Sonicator using duty cycle 1. This preparation provides vesicles with a mole fraction of 0.05 for the FRET substrate.
The enzymatic assay was measured using white, opaque 96-well half area plates. Each well contained 60 uL of assay buffer (50 mM HEPES pH 8.0, 50 mM NaCl and 1 mM CaCl2) and 2 ul of a DMSO solution containing compound of interest. Conditioned media obtained from HT-1080 cells, which were transformed by RAGE technology (Athersys) to overexpress endogenous EL, was added and the reaction was allowed to incubate for 20 min at 37° C. with gentle agitation. The reaction was started by the addition of 20 uL of a 1:4 dilution of vesicles. The final total reaction volume was 100 uL. The reaction rates were measured on a Gemini plate reader with an excitation wavelength of 488 nm and a emission of 530 nm. Readings were taken every 20 seconds for 10 min with agitation between each reading. The slope of the linear portion of the readout was used to calculate the rate of the reaction.

What is called IC50 is the concentration that inhibits the measured activity by half. With `Cn1ccc(C(=O)NCc2ccc(C(F)(F)F)cc2)c(O)c1=O` [Example 129, 3-hydroxy-1-methyl-2-oxo-N-(4-(trifluoromethyl)benzyl)-1,2-dihydropyridine-4-carboxamide], the IC50 turned out to be 3.56 µM.
Take `Cn1ccc(C(=O)NCCc2ccc(C(F)(F)F)cc2)c(O)c1=O` [Example 136, 3-hydroxy-1-methyl-2-oxo-N-(4-(trifluoromethyl)phenethyl)-1,2-dihydropyridine-4-carboxamide]: the IC50 was 2.2 µM.
With `CC(CNC(=O)c1ccn(C)c(=O)c1O)Oc1ccc(F)cc1` (stereo not drawn) [Example 137, N-(2-(4-fluorophenoxy)propyl)-3-hydroxy-1-methyl-2-oxo-1,2-dihydropyridine-4-carboxamide] the figure was 1.66 µM.
Take `Cn1ccc(C(=O)NCCCOc2cccc(F)c2)c(O)c1=O` [Example 142, N-(3-(3-fluorophenoxy)propyl)-3-hydroxy-1-methyl-2-oxo-1,2-dihydropyridine-4-carboxamide]: the IC50 was 0.216 µM.
For `COc1ccc(CNc2c(C(=O)NCCCc3ccc(Cl)c(Cl)c3)ccn(C)c2=O)cc1` [Example 186, (3-(3,4-dichlorophenyl)propyl)-3-(4-methoxybenzylamino)-1-methyl-2-oxo-1,2-dihydropyridine-4-carboxamide], the IC50 turned out to be 0.172 µM.
Consider `CC(C)CNc1c(C(=O)NCCCc2ccc(Cl)c(Cl)c2)ccn(C)c1=O` [Example 188, N-(3-(3,4-dichlorophenyl)propyl)-3-(isobutylamino)-1-methyl-2-oxo-1,2-dihydropyridine-4-carboxamide], for which the IC50 stood at 0.2 µM.
With `CC(C)OCCNc1c(C(=O)NCCCc2ccc(Cl)c(Cl)c2)ccn(C)c1=O` [Example 189, N-(3-(3,4-dichlorophenyl)propyl)-3-(2-isopropoxyethylamino)-1-methyl-2-oxo-1,2-dihydropyridine-4-carboxamide] the figure was 0.21 µM; with `Cn1ccc(C(=O)NCCCOc2ccc(Cl)c(Cl)c2)c(O)c1=O` [Example 194, N-(3-(3,4-dichlorophenoxy)propyl)-3-hydroxy-1-methyl-2-oxo-1,2-dihydropyridine-4-carboxamide], 0.21 µM.
For the compound `COC(=O)c1cccc(OCCCNC(=O)c2ccn(C)c(=O)c2O)c1` [Example 198, methyl 3-(3-(3-hydroxy-1-methyl-2-oxo-1,2-dihydropyridine-4-carboxamido)propoxy)benzoate], the half-maximal inhibitory concentration (IC50) amounted to 0.182 µM.
